Values of other authors, collected in patent US8637551B2, “2-(1,2-benzisoxazol-3-yl)benzylamine derivatives” (Merck Sharp & Dohme B.V., priority 2009, dated 2014).

What was measured:
[1] = test system: rat (Chung) model of neuropathic pain; details: for anti-allodynic effects in the Chung model: clinically used reference drugs
[2] = test system: nerve injured myelinated DRG; details: Yagi et al, 2000
[3] = test system: rat, mild thermal injury model
Brennan model = details: local administration to the sciatic nerve 4 h after surgery; Dalle & Eisenach 2005
[4] = test system: A-beta and A-delta fibres; details: Lee et al 2005
[5] = test system: rat CFA model of inflammatory pain

**Q.** With `NCC1(CC(=O)O)CCCCC1` [gabapentin] as the compound, how does the “anti-allodynic effects in the Chung model” value [1] read?
**A.** Its value is “anti-allodynic effects”.

**Q.** With `CN1CC[C@]23c4c5ccc(O)c4O[C@H]2[C@@H](O)C=C[C@H]3[C@H]1C5` [morphine] as the compound, how does the “anti-allodynic effects in the Chung model” value [1] read?
**A.** The value was “anti-allodynic effects”.

**Q.** Which “anti-allodynic effects in the Chung model” value [1] does the source give for `CNCC[C@H](Oc1cccc2ccccc12)c1cccs1` [duloxetine] here?
**A.** Its value is “anti-allodynic effects”.

**Q.** With `CCN(c1ccccc1)c1cc(=NC)n(C)c(C)n1.Cl` [ZD 7288] as the compound, how does the spontaneous activity [2] read?
**A.** Its spontaneous activity is “reduces spontaneous activity”.

**Q.** And the spontaneous pain [3]?
**A.** Its spontaneous pain is “blocks spontaneous pain”.

**Q.** What about the “reversal of mechanical allodynia” value ([1]; intraperitoneal, Chung/von Frey, Chaplan et al 2003) of the same compound?
**A.** Its value is “dose-dependently reverses mechanical allodynia”.

**Q.** What about the mechanical allodynia (Brennan model) of the same compound?
**A.** Its mechanical allodynia is “attenuates mechanical allodynia”.

**Q.** What about the “firing frequency of ectopic discharges” value [4] of the same compound?
**A.** The value was “reduced the firing frequency of ectopic discharges”.

**Q.** What about the allodynia [5] of the same compound?
**A.** The allodynia was “suppresses allodynia”.
